# Measured values as given in patent US20260053731A1, “MICRONEEDLE PARTICLES FOR ENHANCED TOPICAL TRANSDERMAL DRUG DELIVERY” (BONSENS AB, priority 2023, published 2026).
# Experiment: Adverse effects of daily treatment in tumor-bearing mice (weight, skin histology)
# Format: in vivo, hairless NMRI Nude mice
# Method: For hematoxylin/eosin staining (H&E), skin was isolated, immediately fixed in PFA (4% paraformaldehyde in PBS) overnight at room temperature, and then transferred to 70% ethanol prior to paraffin embedding and sectioning. Then, skin sections (8 μm) were stained with hematoxylin for 3 min after rehydration, rinsed for 10 min in running tap water and then stained for 1 min in eosin solution before being mounted on Fluoromount (DAKO). Whole slide pictures were taken by Olympus Slide View VS200 at Histological Core facility—HistoCore, Karolinska Institutet, Sweden, processed, and analyzed by OlyVIA software.
# The mice were monitored for signs of discomfort (hunched posture, immobility, >10% weight loss) throughout the duration of the experiment as per ethics application.
# In vivo experimentation was performed by inducing subcutaneous GTML2 tumors in mice through injecting a Tet-Off transgenic doxycycline-dependent murine cell line 40 into the flanks. […] Mice were monitored daily and were visualized with IVIS under tumor suspicion. […] Tumors were monitored and measured by IVIS imaging and by vernier calliper every week until the end of the experimentation. When measuring using a Vernier calliper, tumor volumes were calculated from the ellipsoid formula: V=4/3 πWLD. […]
smiles,measurement,setting,value
"C[C@H]1c2cccc(O)c2C(=O)C2=C(O)[C@]3(O)C(=O)C(C(N)=O)=C(O)[C@@H](N(C)C)[C@@H]3[C@@H](O)[C@@H]21 [Doxycycline, doxycycline]",weight of mice,"long term oral doxycycline in drinking water, compared to plain water control group",slower increase in their weight
same,weight of mice,"topical skin treatment, 11 weeks",did not alter the weight of the mice
